Series [1] is described as follows: Ability to trap the hydroxyl radical (deoxyribose oxidation, Fenton reaction). From the text: I.2.3 Ability to Trap the Hydroxyl (^·OH) Radical (Halliwell et al., 1987)
PRINCIPLE: The […] capacity of plant extracts to trap the hydroxyl radical is based on the Fenton reaction, by measuring the production of ·OH radical and its effect on the oxidation and degradation bio-molecules such as deoxyribose in DNA. The system in this technique involves an auto-oxidation of the Fe^2+-EDTA complex in an aqueous medium to form the superoxide (O2^−·) anion which is rapidly dismutated into H2O2 at a pH of 7.4. The latter then reacts with Fe^2+ form ^·OH radicals in the presence of ascorbic acid which acts as catalyst (Fenton reaction). […]
PROTOCOL: The reaction mixture contained the following reagents: 0.4 mL of phosphate buffer (50 mmol/L, pH=7.4), 0.1 mL of different concentrations of the extract, 0.1 mL of EDTA (1.04 mmol/L), 0.1 mL of FeCl3 (1 mmol/L) and 0.1 mL 2-deoxyribose (60 mmol/L). the reaction was initiated by adding 0.1 mL of ascorbic acid (2 mmol/L) and 0.1 mL of H2O2 (10 mmol/L). after incubating for 1 hour at 37° C., 1 mL of TBA (10 g/L) were added into the reaction medium followed by 1 mL of HCl (25% v/v). […] The absorbance was then read at 532 nm. The capacity of extracts to trap the hydroxyl radical was expressed as percentage inhibition of the oxidation of 2-deoxyribose based on the following formula: […]

The test system of series [2] is Aluminum chloride induced neurotoxicity in Wistar rats. Nature of the series: Aluminum chloride treated rats: plasma transaminases ASAT (GOT) and ALAT (GPT), hepatic toxicity. Type of series: in vivo. Here is the method: (§1) [formula] I.3. Evaluation of Neuro-Protective Effects of the Hydro-Ethanolic Extract of B. toxisperma Against Aluminum Chloride Induced Neurotoxicity (Animal Model of Neurotoxicity)
(§2) Twenty albinos Wistar rats weighing between 230-250 g were used for this experiment in which the treatment lasted 3 days. The experimentation was conducted in the animal house of the Laboratory of Nutrition and Nutritional Biochemistry of the department of Biochemistry (Faculty of Science, University of Yaounde I). Animals were fed with standard feed and drinking water ad libitum.
(§3) Rats were divided into 5 groups of 4 rats each. A unique dose of 32.5 mg/kg BW of aluminum trichloride (AlCl3) was administered by intra peritoneal (i.p) route. 24 hours later, different doses of plant extract and vitamin E (reference) were administered by oral route, using a gastro-oesophagian probe once a day for 3 days.
24 hours after the last administration, animals were sacrificed under mild anesthesia in Ether vapor following a 12 hours fasting. The rats' bloods were collected in EDTA tubes. Cervical dislocations were performed immediately after blood collections, to remove the brains which were then rinsed in physiologic solution (0.9% NaCl) and weighed. Plasmas were extracted from the bloods collected and the brains were used to prepare 10% homogenates which served for biochemical analysis.
The blood in EDTA tubes were allowed to stand at room temperature, then centrifuged for 10 minutes at 900 revs/minute, the resulting liquid phase (plasma) was then collected into Eppendorf tubes and stored at −20° C.
1.3.3.3.1. Evaluation of the Activities of the Oxaloglutamate (GOT) and Glutamo-Pyruvate (GPT) Transaminases (Reitman et Franckel, 1957) (Hepatic Toxicity) […]
PROTOCOL: EVALUATION DE L′ACTIVITÉ DE L′ASAT (GOT): 100 μL of substrate solution (annex 3e) were put into tubes, pre-incubated at 37° C. for 5 minutes then 0.02 mL of plasma was added. […] Optical densities were read at 505 nm against a blank (made up of 100 μL of substrate solution and 0.02 mL of NaCl 0.9%) titrated under similar conditions. […]

Series [3] shares this test system. Nature of the series: Aluminum chloride treated rats: plasma creatinine, renal toxicity. Type of series: in vivo. Here is the method:
as §1, §2, §3
24 hours after the last administration, animals were sacrificed under mild anesthesia in Ether vapor following a 12 hours fasting. […]
PROTOCOL: 1 mL of working solution (annex 3f) was placed into test tubes and 0.1 mL of plasma and caliber added respectively to assay and blank tubes. Tubes were agitated and their optical densities read 520 nm against a blank; within the 20 seconds that followed the stabilization of the mixture. […] The concentration of creatinine was determined from the following equation: […]

Where [4] appears, read: HEEBT 150 and 300 mg/kg BW, vitamin E.
Setting [5] is: plasma, AlCl3 32.5 mg/kg i.p., Vit E 100 mg/kg BW/day (VE100).

The values that follow come from US11684646B2, “Methods and related compositions for reducing oxidative stress” (Gateway Health Alliances, Inc., priority 2019, dated 2023).

On to Vitamin E, for which the “IC50 ·OH scavenging activity” value in series [1] came to 25.3 mg/mL. Further, the “effect on activities of plasma transaminases after aluminum” value in series [2] (setting [4]) was “tend to normalize”. Further, in series [2] (setting [5]), the ALAT was found to be 60.135 ± 7.453 unité d'ALAT/mL and the ASAT is given as 76.363 ± 1.868 unité d'ASAT/mL. Further, the “effect on plasma creatinine after aluminum” value in series [3] (setting [4]) is “tend to normalize”. For the same substance, in series [3] (setting [5]), the Créatinine came out at 2.297 ± 0.181 mg/dL.
